The subject of test [1] is Non-small cell lung cancer cell line HCC827. Nature of the test: Gene expression level changes by whole transcriptome profiling (RNAseq) in HCC827 cells. In kind it is cell-based. As to conditions: 2 h treatment, 1 mM and 15 mM, versus untreated control. The text has this: Another embodiment includes a method for treating or determining the sensitivity of non-small cell cancer to a 2,2′-dithio-bis-ethane sulfonate treatment by assessing the level of NRF2 (SEQ ID NO: 1) expression and at least one gene selected from the group consisting of: NQO1 (SEQ ID NO: 2), PHGDH (SEQ ID NO: 3), HMOX1 (SEQ ID NO: 4), SLC7A11 (SEQ ID NO: 5), SRXN1 (SEQ ID NO: 6), SOX2(SEQ ID NO: 7), GPX2 (SEQ ID NO: 8), GPX3 (SEQ ID NO: 9), and GPX7(SEQ ID NO: 10). For illustration, non-small cell lung cancer cell line HCC827 was treated for 2 h with 2,2′-dithio-bis-ethane sulfonate alone at concentrations of 1 mM and 15 mM and gene expression level changes were measured by whole transcriptome profiling using RNAseq. A control sample with no treatment for the same duration was used as the baseline gene expression level. A greater than 1.5 to 2-fold expression level change can be indicative of 2, 2′-dithio-bis-ethane sulfonate sensitivity.
Non-small cell lung cancer cell line HCC827 was treated for 2 h with disodium 2,2′-dithio-bis-ethane sulfonate alone at concentrations of 1 mM and 15 mM and gene expression level changes were measured by whole transcriptome profiling using RNAseq. A control sample with no treatment for the same duration was used as the baseline gene expression level. […]

The test system of test [2] is nuclear factor erythroid 2-related factor 2 (Nrf2). Nature of the test: Induction of nuclear expression of Nrf2 in NGF-differentiated PC12 cells, western blotting. The format is cell-based, rat. As to conditions: PC12 neuron-like cells. Here is the method: PC12 cells were suspended in DMEM containing 7.5% inactivated fetal bovine serum and 7.5% inactivated horse serum. After seeding onto a type I collagen-coated 100 mm culture dish, these cells were incubated for 7 days in the presence of 100 ng/mL NGF for priming. Culture medium was then replaced with Neurobasal™ medium supplemented with N-2 supplement and 2 mM glutamine containing NGF 30 ng/mL, and cells were incubated again for 3 days for differentiation into neuron-like cells. Next, these cells were treated with 2,2′-dithio-bis-ethane sulfonate 6 mM for 1, 2, 4 and 8 hours, or with a known Nrf2 activator, tert-butylhydroquinone (t-BHQ) 30 μM for 3 hours. Nuclear proteins were then extracted from the cells for detection of nuclear expression of Nrf2 by western blotting.
(In western blotting, separated proteins are transferred to a membrane and probed.)

Take `O=S(=O)([O-])CCSSCCS(=O)(=O)[O-].[Na+].[Na+]` [2,2′-dithio-bis-ethane sulfonate, disodium 2,2′-dithio-bis-ethane sulfonate]: in test [1], the “gene expression level change of NRF2 biomarker genes (NQO1, PHGDH, HMOX1, SLC7A11, SRXN1, SOX2, GPX2, GPX3, GPX7)” value is on record as “nine genes are upregulated”. Further, in test [2] (6 mM), the “time at which nuclear expression of Nrf2 started after the start of treatment” value was 1 h and the “time until which apparent expression of Nrf2 persisted after the start of treatment” value came to 8 h. Moreover, in test [2] (6 mM, 1, 2, 4 and 8 hours), the “induction of nuclear expression of Nrf2” value is given as “induction of nuclear expression of Nrf2”.
`CC(C)(C)c1cc(O)ccc1O` [t-BHQ, tert-butylhydroquinone, reference compound]: the “induction of nuclear expression of Nrf2” value in test [2] (30 μM, 3 hours) is listed as “induction of nuclear expression of Nrf2”.
